{"source": "patent US11844845B2", "about": "“Cell penetrating peptide, conjugate comprising same, and composition comprising conjugate” (GEMVAX & KAEL CO., LTD., priority 2012, dated 2023)"}
{"test_system": "HeLa cell", "assay": "Cell penetration of pep(CPP)-FITC conjugate in HeLa cell line, flow cytometry (FACS)", "format": "cell-based, Homo sapiens", "settings": "HeLa cells, 20 uM FITC-fused peptide, 37° C. for an hour, control = FITC only", "protocol": "Homo sapiens cervix adenocarcinoma cell line as HeLa cell lines were purchased from ATCC (American Type Cell Culture). The cells were cultured in MEM supplemented with 10% fetal bovine serum (Invitrogen, USA), Earle's salts, non-essential amino acids, sodium pyruvate and 100 μg/ml penicillin and 10 units/ml streptomycin and cultured at 37° C., 5% CO2 incubator.\nFlow cytometry and Confocal microscope analysis were performed to compare the between degree of cellular uptake of the cells were treated with SEQ ID NO: 2 to SEQ ID NO: 178, pep (CPP) and control.\nThe cell line was divided in a 6-well plate and cultured in a medium containing 10% fetal bovine serum (Invitrogen, USA), 100 μg/ml penicillin, 100 units/ml streptomycin at 37° C. 5% CO2 incubator for 12 hours. After washing the cell line with PBS, starvation was induced in a Minimum Essential Medium for an hour. 20 uM of each carrier peptide was treated and cultured at 37° C. for an hour. After repeating the step of washing the cells with PBS for three times, Trypsin-EDTA was treated form 10 mins at 37° C. to separate the carrier peptide on the outside of the cell. cells were collected with refrigerated PBS and centrifugation was performed to repeat the step of washing the cells for three times. After then, the cells were suspended in 0.5 ml of PBS containing 4% Paraformaldehyde and fluorescence of the cells was analyzed using FACS Calibur (Becton Dickinson). The cellular uptake aspect of control and various peptides combined with FITC was compared and analyzed by MFI (Mean Fluorescence Intensity).\nAnalysis results shown in FIGS. 2 to 29 are given in detail in Table 7 below."}
{"substance": "EARPALLTSRLRFIPKPDGLRPIV (listed as Homo sapiens) [Pep-RIA-71]", "cellular uptake, MFI (Mean Fluorescence Intensity)": "17.21 ± 0.52"}
{"substance": "AEVRQHREARPALLTSRLRFIPKPDGLR (listed as Homo sapiens) [Pep-RIA-55]", "cellular uptake, MFI (Mean Fluorescence Intensity)": "18.75 ± 1.51"}
{"substance": "LTSRLRFIPK (listed as Homo sapiens) [Pep-RIA-96]", "cellular uptake, MFI (Mean Fluorescence Intensity)": "14.96 ± 0.42"}
{"substance": "QHREARPALLTSRLRFIPKPDGLR (listed as Homo sapiens) [Pep-RIA-37]", "cellular uptake, MFI (Mean Fluorescence Intensity)": "16.73 ± 0.28"}
{"substance": "EVRQHREARPALLTSRLRFIPKPDGL (listed as Homo sapiens) [Pep-RIA-43]", "cellular uptake, MFI (Mean Fluorescence Intensity)": "15.34 ± 1.35"}
{"substance": "VRQHREARPALLTSRLRFIPKPDGLRP (listed as Homo sapiens) [Pep-RIA-46]", "cellular uptake, MFI (Mean Fluorescence Intensity)": "15.35 ± 0.92"}
{"substance": "REARPALLTSRLRFIPKPD (listed as Homo sapiens) [Pep-RIA-18]", "cellular uptake, MFI (Mean Fluorescence Intensity)": "13.4 ± 0.34"}
{"substance": "LTSRLRFI (listed as Homo sapiens) [Pep-RIA-154]", "cellular uptake, MFI (Mean Fluorescence Intensity)": "12.21 ± 1.29"}
{"substance": "PALLTSR (listed as Homo sapiens) [Pep-RIA-134]", "cellular uptake, MFI (Mean Fluorescence Intensity)": "13.28 ± 0.75"}
{"substance": "EARPALLTSRLRFIPKPDG (listed as Homo sapiens) [Pep-RIA-66]", "cellular uptake, MFI (Mean Fluorescence Intensity)": "13.46 ± 0.19"}
{"substance": "EVRQHREARPALLTSRLRFIPK (listed as Homo sapiens) [Pep-RIA-6]", "cellular uptake, MFI (Mean Fluorescence Intensity)": "16.09 ± 2.52"}
{"substance": "EARPA (listed as Homo sapiens) [Pep-RIA-88]", "cellular uptake, MFI (Mean Fluorescence Intensity)": "8.89 ± 0.61"}
{"substance": "ALLTSR (listed as Homo sapiens) [Pep-RIA-142]", "cellular uptake, MFI (Mean Fluorescence Intensity)": "13.23 ± 0.57"}
{"substance": "EARPALL (listed as Homo sapiens) [Pep-RIA-86]", "cellular uptake, MFI (Mean Fluorescence Intensity)": "9.95 ± 2.34"}
{"substance": "EARPALLTSRLRFIPKPDGLR (listed as Homo sapiens) [Pep-RIA-68]", "cellular uptake, MFI (Mean Fluorescence Intensity)": "14.94 ± 1.88"}
{"substance": "LLTS (listed as Homo sapiens) [Pep-RIA-151]", "cellular uptake, MFI (Mean Fluorescence Intensity)": "8.81 ± 0.83"}
{"substance": "VRQHREARPALLTSRLRFIPK (listed as Homo sapiens) [Pep-RIA-5]", "cellular uptake, MFI (Mean Fluorescence Intensity)": "20.24 ± 0.34"}
{"substance": "EARPALLTSRLRFI (listed as Homo sapiens) [Pep-RIA-79]", "cellular uptake, MFI (Mean Fluorescence Intensity)": "10.73 ± 1.18"}
{"substance": "ELSEAEVRQHREARPALLTSRLRFIPK (listed as Homo sapiens) [Pep-RIA-11]", "cellular uptake, MFI (Mean Fluorescence Intensity)": "15.22 ± 0.23"}
{"substance": "QHREARPALLTSRLRFIPKPDGL (listed as Homo sapiens) [Pep-RIA-28]", "cellular uptake, MFI (Mean Fluorescence Intensity)": "14.8 ± 0.32"}
{"substance": "HREARPALLTSRLRFIPK (listed as Homo sapiens) [Pep-RIA-2]", "cellular uptake, MFI (Mean Fluorescence Intensity)": "20.56 ± 1.23"}
{"substance": "ALLT (listed as Homo sapiens) [Pep-RIA-144]", "cellular uptake, MFI (Mean Fluorescence Intensity)": "14.54 ± 0.21"}
{"substance": "TSRLRF (listed as Homo sapiens) [Pep-RIA-161]", "cellular uptake, MFI (Mean Fluorescence Intensity)": "14.41 ± 0.81"}
{"substance": "RQHREARPALLTSRLRFIPK (listed as Homo sapiens) [Pep-RIA-4]", "cellular uptake, MFI (Mean Fluorescence Intensity)": "27.25 ± 0.79"}
{"substance": "SRLRFI (listed as Homo sapiens) [Pep-RIA-166]", "cellular uptake, MFI (Mean Fluorescence Intensity)": "6.97 ± 0.53"}
{"substance": "TSRLRFIP (listed as Homo sapiens) [Pep-RIA-159]", "cellular uptake, MFI (Mean Fluorescence Intensity)": "12.58 ± 1.08"}
{"substance": "FIPK (listed as Homo sapiens) [Pep-RIA-102]", "cellular uptake, MFI (Mean Fluorescence Intensity)": "12.64 ± 0.44"}
{"substance": "HREARPALLTSRLRFIPKPDG (listed as Homo sapiens) [Pep-RIA-22]", "cellular uptake, MFI (Mean Fluorescence Intensity)": "14.42 ± 0.28"}
{"substance": "EARPALLTSR (listed as Homo sapiens) [Pep-RIA-83]", "cellular uptake, MFI (Mean Fluorescence Intensity)": "10.27 ± 0.25"}
{"substance": "RQHREARPALLTSRLRFIPKP (listed as Homo sapiens) [Pep-RIA-24]", "cellular uptake, MFI (Mean Fluorescence Intensity)": "19.42 ± 0.72"}
{"substance": "EARPALLTSRLRFIPKPDGLRPIVNMDY (listed as Homo sapiens) [Pep-RIA-75]", "cellular uptake, MFI (Mean Fluorescence Intensity)": "26.21 ± 1.29"}
{"substance": "AEVRQHREARPALLTSRLRFIPKPD (listed as Homo sapiens) [Pep-RIA-52]", "cellular uptake, MFI (Mean Fluorescence Intensity)": "15.49 ± 0.29"}
{"substance": "PALL (listed as Homo sapiens) [Pep-RIA-137]", "cellular uptake, MFI (Mean Fluorescence Intensity)": "10.71 ± 1.99"}
{"substance": "RQHREARPALLISRLRFIPKPD (RQHREARPALLTSRLRFIPKPD; listed as Homo sapiens) [Pep-RIA-25]", "cellular uptake, MFI (Mean Fluorescence Intensity)": "17.41 ± 0.32"}
{"substance": "ALLTSRLRF (listed as Homo sapiens) [Pep-RIA-140]", "cellular uptake, MFI (Mean Fluorescence Intensity)": "21.18 ± 0.11"}
{"substance": "EARPALLTSRLRFIPKPDGLRPIVN (listed as Homo sapiens) [Pep-RIA-72]", "cellular uptake, MFI (Mean Fluorescence Intensity)": "21.7 ± 1.21"}
{"substance": "AEVRQHREARPALLTSRLRFIPKPDG (listed as Homo sapiens) [Pep-RIA-53]", "cellular uptake, MFI (Mean Fluorescence Intensity)": "15.85 ± 0.74"}
{"substance": "LTSRLRF (listed as Homo sapiens) [Pep-RIA-155]", "cellular uptake, MFI (Mean Fluorescence Intensity)": "14.31 ± 0.55"}
{"substance": "EVRQHREARPALLTSRLRFIPKPD (listed as Homo sapiens) [Pep-RIA-41]", "cellular uptake, MFI (Mean Fluorescence Intensity)": "13.58 ± 2.78"}
{"substance": "ARPALLTS (listed as Homo sapiens) [Pep-RIA-115]", "cellular uptake, MFI (Mean Fluorescence Intensity)": "12.13 ± 0.34"}
{"substance": "PALLTSRLRF (listed as Homo sapiens) [Pep-RIA-106]", "cellular uptake, MFI (Mean Fluorescence Intensity)": "18.41 ± 1.12"}
{"substance": "ARPAL (listed as Homo sapiens) [Pep-RIA-118]", "cellular uptake, MFI (Mean Fluorescence Intensity)": "11.41 ± 1.03"}
{"substance": "RFIPK (listed as Homo sapiens) [Pep-RIA-101]", "cellular uptake, MFI (Mean Fluorescence Intensity)": "12.35 ± 0.28"}
{"substance": "EARP (listed as Homo sapiens) [Pep-RIA-89]", "cellular uptake, MFI (Mean Fluorescence Intensity)": "9.13 ± 0.77"}
{"substance": "ARPALLTSRL (listed as Homo sapiens) [Pep-RIA-113]", "cellular uptake, MFI (Mean Fluorescence Intensity)": "11.54 ± 1.57"}
{"substance": "AEVRQHREARPALLTSRLRFIPK (listed as Homo sapiens) [Pep-RIA-7]", "cellular uptake, MFI (Mean Fluorescence Intensity)": "16.49 ± 1.35"}
{"substance": "RQHREARPALLTSRLRFIPKPDGLRPI (listed as Homo sapiens) [Pep-RIA-60]", "cellular uptake, MFI (Mean Fluorescence Intensity)": "15.93 ± 1.84"}
{"substance": "ALLTSRLR (listed as Homo sapiens) [Pep-RIA-107]", "cellular uptake, MFI (Mean Fluorescence Intensity)": "16.41 ± 1.36"}
{"substance": "PALLTSRLRFIPK (listed as Homo sapiens) [Pep-RIA-93]", "cellular uptake, MFI (Mean Fluorescence Intensity)": "22.88 ± 1.82"}
{"substance": "HREARPALLTSRLRFIPKPDGLRP (listed as Homo sapiens) [Pep-RIA-49]", "cellular uptake, MFI (Mean Fluorescence Intensity)": "15.15 ± 0.62"}
{"substance": "SRL (listed as Homo sapiens) [Pep-RIA-169]", "cellular uptake, MFI (Mean Fluorescence Intensity)": "5.64 ± 0.65"}
{"substance": "EARPALLTSRL (listed as Homo sapiens) [Pep-RIA-82]", "cellular uptake, MFI (Mean Fluorescence Intensity)": "10.12 ± 0.95"}
{"substance": "HREARPALLTSRLRFIPKPD (listed as Homo sapiens) [Pep-RIA-17]", "cellular uptake, MFI (Mean Fluorescence Intensity)": "13.61 ± 0.22"}
{"substance": "ALL (listed as Homo sapiens) [Pep-RIA-145]", "cellular uptake, MFI (Mean Fluorescence Intensity)": "13.85 ± 0.38"}
{"substance": "TSRLRFIPK (listed as Homo sapiens) [Pep-RIA-97]", "cellular uptake, MFI (Mean Fluorescence Intensity)": "13.68 ± 0.37"}
{"substance": "EAR (listed as Homo sapiens) [Pep-RIA-90]", "cellular uptake, MFI (Mean Fluorescence Intensity)": "9.77 ± 0.97"}
{"substance": "EVRQHREARPALLTSRLRFIPKP (listed as Homo sapiens) [Pep-RIA-40]", "cellular uptake, MFI (Mean Fluorescence Intensity)": "15.14 ± 3.52"}
{"substance": "EARPALLTSRLRFIPKPDGLRPIVNMD (listed as Homo sapiens) [Pep-RIA-74]", "cellular uptake, MFI (Mean Fluorescence Intensity)": "21.77 ± 2.01"}
{"substance": "PALLTSRLR (listed as Homo sapiens) [Pep-RIA-132]", "cellular uptake, MFI (Mean Fluorescence Intensity)": "13.72 ± 0.52"}
{"substance": "HREARPALLTSRLRFIPKP (listed as Homo sapiens) [Pep-RIA-16]", "cellular uptake, MFI (Mean Fluorescence Intensity)": "15.96 ± 2.37"}
{"substance": "PAL (listed as Homo sapiens) [Pep-RIA-138]", "cellular uptake, MFI (Mean Fluorescence Intensity)": "10.8 ± 0.78"}
{"substance": "RQHREARPALLTSRLRFIPKPDGL (listed as Homo sapiens) [Pep-RIA-27]", "cellular uptake, MFI (Mean Fluorescence Intensity)": "19.69 ± 0.49"}
{"substance": "LLTSRLRFIPK (listed as Homo sapiens) [Pep-RIA-95]", "cellular uptake, MFI (Mean Fluorescence Intensity)": "25.79 ± 0.46"}
{"substance": "EARPALLTSRLRFIPKPDGLRPIVNM (listed as Homo sapiens) [Pep-RIA-73]", "cellular uptake, MFI (Mean Fluorescence Intensity)": "24.33 ± 0.89"}
{"substance": "EAEVRQHREARPALLTSRLRFIPK (listed as Homo sapiens) [Pep-RIA-8]", "cellular uptake, MFI (Mean Fluorescence Intensity)": "14.12 ± 0.79"}
{"substance": "EVRQHREARPALLTSRLRFIPKPDGLRPI (listed as Homo sapiens) [Pep-RIA-58]", "cellular uptake, MFI (Mean Fluorescence Intensity)": "17.96 ± 0.97"}
{"substance": "EARPALLTSRLRFIPKPDGLRPIVNMDYVV (listed as Homo sapiens) [Pep-RIA-77]", "cellular uptake, MFI (Mean Fluorescence Intensity)": "87.67 ± 0.93"}
{"substance": "AEVRQHREARPALLTSRLRFIPKPDGL (listed as Homo sapiens) [Pep-RIA-54]", "cellular uptake, MFI (Mean Fluorescence Intensity)": "13.71 ± 0.11"}
